Laboratory results published in ChEMBL document CHEMBL5523697, “Colony Stimulating Factor-1 Receptor: An emerging target for neuroinflammation PET imaging and AD therapy” (Bioorg Med Chem, 2024).

Experiments:
[1] = biological target: T1, Macrophage colony-stimulating factor 1 receptor (Homo sapiens, UniProt P07333)
[2] = physchem; conditions: buffer, pH 7.4
[3] = biological target: T1, Macrophage colony-stimulating factor 1 receptor; remark: listed apart in the source
[4] = in vivo; conditions: mouse, brain, iv, 5 mg/kg
[5] = in vivo; conditions: mouse, brain
[6] = in vivo; conditions: mouse, brain, iv, 5 mg/kg; remark: listed apart in the source
[7] = physchem; conditions: octanol/water
[8] = in vivo; conditions: mouse, brain, iv, 5 mg/kg; remark: listed apart in the source
[9] = biological target: T1, Macrophage colony-stimulating factor 1 receptor; remark: listed apart in the source

T1 sequence (P07333 whole entry): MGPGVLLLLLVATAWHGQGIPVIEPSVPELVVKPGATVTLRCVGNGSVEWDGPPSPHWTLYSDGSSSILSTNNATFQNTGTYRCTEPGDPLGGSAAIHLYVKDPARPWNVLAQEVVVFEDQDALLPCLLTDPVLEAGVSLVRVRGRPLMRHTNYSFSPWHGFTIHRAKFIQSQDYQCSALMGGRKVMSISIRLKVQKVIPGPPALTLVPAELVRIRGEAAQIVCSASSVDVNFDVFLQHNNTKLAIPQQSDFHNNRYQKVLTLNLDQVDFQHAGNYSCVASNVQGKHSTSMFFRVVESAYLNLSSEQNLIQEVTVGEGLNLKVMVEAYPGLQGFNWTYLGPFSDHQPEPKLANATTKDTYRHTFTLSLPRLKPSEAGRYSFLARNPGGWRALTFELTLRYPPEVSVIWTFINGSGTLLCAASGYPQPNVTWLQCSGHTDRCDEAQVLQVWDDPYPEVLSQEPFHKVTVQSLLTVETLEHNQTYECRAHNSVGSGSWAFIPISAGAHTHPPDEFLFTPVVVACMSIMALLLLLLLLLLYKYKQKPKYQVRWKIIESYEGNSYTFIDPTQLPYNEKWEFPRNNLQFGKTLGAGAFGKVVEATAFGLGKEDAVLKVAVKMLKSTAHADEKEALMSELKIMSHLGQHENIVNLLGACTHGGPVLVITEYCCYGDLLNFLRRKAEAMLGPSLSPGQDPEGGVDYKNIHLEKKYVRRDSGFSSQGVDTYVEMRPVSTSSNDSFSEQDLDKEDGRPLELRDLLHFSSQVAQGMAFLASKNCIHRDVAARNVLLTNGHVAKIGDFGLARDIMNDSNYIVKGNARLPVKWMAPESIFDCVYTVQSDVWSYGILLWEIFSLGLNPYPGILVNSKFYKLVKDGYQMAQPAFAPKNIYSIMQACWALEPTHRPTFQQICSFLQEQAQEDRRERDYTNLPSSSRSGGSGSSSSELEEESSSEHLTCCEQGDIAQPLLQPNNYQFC

CNC(=O)c1cc(Oc2ccc3nc(N([11CH3])[C@@H]4CCCC[C@H]4O)sc3c2)ccn1
Kd [1]: 26 nM
logD [2]: 3.38

CCOc1cc2ncc(C(N)=O)c(Nc3ccc(F)cc3F)c2cc1N1CCN(C)CC1
Ki [3]: 8 nM

[11CH3]NC(=O)c1cc(Oc2ccc3nc(N[C@@H]4CCCC[C@H]4O)sc3c2)ccn1
tissue uptake at 1 h [4]: 1.3 %ID/g
tissue uptake at 1 h [5]: 1.18 %ID/g
tissue uptake at 5 min [6]: 2 %ID/g
logD [7]: 2.26
tissue uptake at 0.25 h [8]: 1.35 %ID/g

CNC(=O)c1cc(Oc2ccc3nc(N(C)[C@@H]4CCCC[C@H]4O)sc3c2)ccn1
Kd [1]: 15.7 nM
logD [2]: 3.67

CCOc1cc2ncc(C(N)=O)c(Nc3ccc(F)cc3F)c2cc1N1CCN([11CH3])CC1
IC50 [9]: 6 nM
